These results are taken from patent publication US11452727B2, “Combination therapy for treating cancer” (Epizyme, Inc., priority 2017, dated 2022).

Common to all, as to test: In vitro combination study with tazemetostat, cell proliferation (Cell Titer Glo)
(Cellular ATP, detected with luciferase, serves as a proxy for viable cell number.)

One assay deals with A427. To be noted: for combinatorial effect with tazemetostat (Loewe volume class): A427, 7 days tazemetostat pre-treatment, 6 days co-treatment with second agent.
For the next assay, the system named is A549. The following applies: 7 days tazemetostat pre-treatment, 6 days co-treatment with second agent.
In another assay the test system is NCI-H1299. The following applies: 7 days tazemetostat pre-treatment, 6 days co-treatment with second agent.
The next assay relates to NCI-H1573. The following applies: 7 days tazemetostat pre-treatment, 6 days co-treatment with second agent.
The subject of a further assay is NCI-H1703. The following applies: 7 days tazemetostat pre-treatment, 6 days co-treatment with second agent.
Another assay has as its system NCI-H1793. To be noted: 7 days tazemetostat pre-treatment, 6 days co-treatment with second agent.
The next assay relates to NCI-H1993. To be noted: 7 days tazemetostat pre-treatment, 6 days co-treatment with second agent.
The test system of a further assay is NCI-H2030. The following applies: 7 days tazemetostat pre-treatment, 6 days co-treatment with second agent.
The test system of another assay is NCI-H2110. To be noted: 7 days tazemetostat pre-treatment, 6 days co-treatment with second agent.
Another assay deals with NCI-H2122. To be noted: 7 days tazemetostat pre-treatment, 6 days co-treatment with second agent.
The next assay relates to NCI-H23. To be noted: 7 days tazemetostat pre-treatment, 6 days co-treatment with second agent.
A further assay concerns NCI-H460. The following applies: 7 days tazemetostat pre-treatment, 6 days co-treatment with second agent.
The test system of a further assay is NCI-H522. The following applies: 7 days tazemetostat pre-treatment, 6 days co-treatment with second agent.
The next assay concerns NCI-H661. The following applies: 7 days tazemetostat pre-treatment, 6 days co-treatment with second agent.
Another assay relates to NCI-H838. To be noted: 7 days tazemetostat pre-treatment, 6 days co-treatment with second agent.
A further assay has as its system Calu-3. To be noted: 7 days tazemetostat pre-treatment, 6 days co-treatment with second agent.
A further assay relates to Calu-6. To be noted: 7 days tazemetostat pre-treatment, 6 days co-treatment with second agent.
For a further assay, the system named is HCC827. The following applies: 7 days tazemetostat pre-treatment, 6 days co-treatment with second agent.

Experimental for A427: (§1) Initial proliferation studies were performed to determine the IC50 of tazemetostat in each cell line. For the screen, tazemetostat was used at concentrations bracketed around the IC50 value. If 50% inhibitory concentration was not reached then tazemetostat was tested starting at 10 μM.
(§2) In order to study the effect of dual combination of tazemetostat and a second agent on cell proliferation, cells in log-linear phase growth rate were pre-treated with various concentrations of tazemetostat or DMSO for 7 days in flasks, plated in 384-well plates in the absence of compounds and co-treated on day 8 with tazemetostat or DMSO and the second agent serially diluted for additional 6 days (as depicted in FIG. 1). On day 15, plates were developed for endpoint analysis using Cell Titer Glo to measure ATP content, which was used as an indicator of cell viability. DMSO concentration was kept constant throughout the assay at 0.15% v/v.
(§3) All cell lines were obtained from American Type Culture Collection (ATCC; Rockville, Md.). […] A427, Calu-3, Calu-6 cell lines were cultured in EMEM+10% Fetal bovine serum (FBS)+1% v/v Penicillin/Streptomycin (P/S).
Experimental for Calu-3: as §1, §2
(§4) NCI-H1573 was cultured in DMEM: F12 Medium containing the following components: 0.02 mg/ml insulin, 0.01 mg/ml transferrin, 25 nM sodium selenite, 50 nM Hydrocortisone, 1 ng/ml Epidermal Growth Factor, 0.01 mM ethanolamine, 0.01 mM phosphorylethanolamine, 100 pM triiodothyronine, 0.5% (w/v) bovine serum albumin, 0.5 mM sodium pyruvate, 4.5 mM L-glutamine and 1% v/v Pen/Strep.
Experimental for Calu-6: as §1, §2
Experimental for HCC827: as §1, §2, §4
Experimental for NCI-H1299: as §1, §2
Experimental for NCI-H1573: as §1, §2, §4
Experimental for NCI-H1703: as §1, §2
Experimental for NCI-H1793: as §1, §2, §4
Experimental for NCI-H1993: as §1, §2
Experimental for NCI-H2110: as §1, §2
Experimental for NCI-H23: as §1, §2, §3
Experimental for NCI-H460: as §1, §2, §3
Experimental for NCI-H661: as §1, §2, §3
Experimental for NCI-H838: as §1, §2, §4

Take `CC(=O)O[C@@]12CO[C@@H]1C[C@H](O)[C@@]1(C)C(=O)[C@H](O)C3=C(C)[C@@H](OC(=O)[C@H](O)[C@@H](NC(=O)OC(C)(C)C)c4ccccc4)C[C@@](O)([C@@H](OC(=O)c4ccccc4)[C@H]21)C3(C)C` [Docetaxel, docetaxel]: the “combinatorial effect with tazemetostat (Loewe volume class)” value (shortened to “combinatorial effect with tazemetostat”) in the assay on A427 is “Syn. (Loewe volumes greater than 1 denoted “synergy”)”; in the assay with A549, “Add. (A value between −1 and 1 denoted “additivity”)”; with NCI-H1299, “Syn. (Loewe volumes greater than 1 denoted “synergy”)”; in the assay on NCI-H1573 it was “Add. (A value between −1 and 1 denoted “additivity”)”; in the assay with NCI-H1703, “Add. (A value between −1 and 1 denoted “additivity”)”; with NCI-H1793 it was “Syn. (Loewe volumes greater than 1 denoted “synergy”)”. For the same molecule, the “combinatorial effect with tazemetostat” value with NCI-H1993 was “Add. (A value between −1 and 1 denoted “additivity”)”; in the assay on NCI-H2030, “Syn. (Loewe volumes greater than 1 denoted “synergy”)”; with NCI-H2110, “Add. (A value between −1 and 1 denoted “additivity”)”; in the assay on NCI-H2122, “Add. (A value between −1 and 1 denoted “additivity”)”; with NCI-H23 it was “Add. (A value between −1 and 1 denoted “additivity”)”; in the assay on NCI-H460 it was “Syn. (Loewe volumes greater than 1 denoted “synergy”)”. For the same molecule, the “combinatorial effect with tazemetostat” value in the assay with NCI-H522 was “Add. (A value between −1 and 1 denoted “additivity”)”; in the assay on NCI-H661, “Syn. (Loewe volumes greater than 1 denoted “synergy”)”; with NCI-H838 it was “Add. (A value between −1 and 1 denoted “additivity”)”; in the assay on Calu-3, “Syn. (Loewe volumes greater than 1 denoted “synergy”)”; with Calu-6, “Add. (A value between −1 and 1 denoted “additivity”)”; in the assay on HCC827 it was “Add. (A value between −1 and 1 denoted “additivity”)”.
As for `CCN1CCN(Cc2ccc(Nc3ncc(F)c(-c4cc(F)c5nc(C)n(C(C)C)c5c4)n3)nc2)CC1` [Abemaciclib, abemaciclib], the “combinatorial effect with tazemetostat” value is “Syn. (Loewe volumes greater than 1 denoted “synergy”)” with A427; “Add. (A value between −1 and 1 denoted “additivity”)” with A549; “Anta. (volumes <−1 denoted “antagonism”)” with NCI-H1299; “Add. (A value between −1 and 1 denoted “additivity”)” in the assay on NCI-H1573; “Add. (A value between −1 and 1 denoted “additivity”)” in the assay with NCI-H1703; “Syn. (Loewe volumes greater than 1 denoted “synergy”)” in the assay with NCI-H1793. Besides, the “combinatorial effect with tazemetostat” value with NCI-H1993 is “Syn. (Loewe volumes greater than 1 denoted “synergy”)”; in the assay with NCI-H2030 it was “Syn. (Loewe volumes greater than 1 denoted “synergy”)”; in the assay with NCI-H2110, “Add. (A value between −1 and 1 denoted “additivity”)”; in the assay on NCI-H2122, “Anta. (volumes <−1 denoted “antagonism”)”; in the assay with NCI-H23 it was “Add. (A value between −1 and 1 denoted “additivity”)”; in the assay on NCI-H460 it was “Add. (A value between −1 and 1 denoted “additivity”)”. In addition, the “combinatorial effect with tazemetostat” value with NCI-H522 is “Add. (A value between −1 and 1 denoted “additivity”)”; in the assay with NCI-H661, “Syn. (Loewe volumes greater than 1 denoted “synergy”)”; in the assay on NCI-H838 it was “Add. (A value between −1 and 1 denoted “additivity”)”; in the assay with Calu-3 it was “Add. (A value between −1 and 1 denoted “additivity”)”; with Calu-6 it was “Syn. (Loewe volumes greater than 1 denoted “synergy”)”; with HCC827 it was “Add. (A value between −1 and 1 denoted “additivity”)”.
`Cc1cc(Nc2ncc(Cl)c(Nc3ccccc3S(=O)(=O)C(C)C)n2)c(OC(C)C)cc1C1CCNCC1` [Ceritinib, ceritinib]: the “combinatorial effect with tazemetostat” value in the assay with A427 was “Syn. (Loewe volumes greater than 1 denoted “synergy”)”; in the assay with A549 it was “Add. (A value between −1 and 1 denoted “additivity”)”; in the assay on NCI-H1299, “Add. (A value between −1 and 1 denoted “additivity”)”; in the assay with NCI-H1573, “Syn. (Loewe volumes greater than 1 denoted “synergy”)”; with NCI-H1703, “Add. (A value between −1 and 1 denoted “additivity”)”; in the assay on NCI-H1793, “Add. (A value between −1 and 1 denoted “additivity”)”. The “combinatorial effect with tazemetostat” value in the assay on NCI-H1993 was “Syn. (Loewe volumes greater than 1 denoted “synergy”)”; with NCI-H2030, “Add. (A value between −1 and 1 denoted “additivity”)”; in the assay with NCI-H2110 it was “Add. (A value between −1 and 1 denoted “additivity”)”; in the assay with NCI-H2122, “Anta. (volumes <−1 denoted “antagonism”)”; in the assay with NCI-H23 it was “Add. (A value between −1 and 1 denoted “additivity”)”; in the assay with NCI-H460 it was “Add. (A value between −1 and 1 denoted “additivity”)”. For the same molecule, the “combinatorial effect with tazemetostat” value was “Add. (A value between −1 and 1 denoted “additivity”)” with NCI-H522; “Syn. (Loewe volumes greater than 1 denoted “synergy”)” with NCI-H661; “Syn. (Loewe volumes greater than 1 denoted “synergy”)” in the assay on NCI-H838; “Add. (A value between −1 and 1 denoted “additivity”)” with Calu-3; “Add. (A value between −1 and 1 denoted “additivity”)” with Calu-6; “Add. (A value between −1 and 1 denoted “additivity”)” in the assay with HCC827. Also, the “synergy with an EZH2 inhibitor (tazemetostat)” value with A427 (A427 cells, dose matrix, Loewe excess matrix, isobologram (FIG. 2-5)) was “synergy”.
For `Nc1ccn([C@@H]2O[C@H](CO)[C@@H](O)C2(F)F)c(=O)n1` [Gemcitabine, gemcitabine], the “combinatorial effect with tazemetostat” value in the assay on A427 was “Syn. (Loewe volumes greater than 1 denoted “synergy”)”; in the assay on A549, “Add. (A value between −1 and 1 denoted “additivity”)”; in the assay on NCI-H1299, “Add. (A value between −1 and 1 denoted “additivity”)”; in the assay with NCI-H1573, “Add. (A value between −1 and 1 denoted “additivity”)”; in the assay with NCI-H1703, “Add. (A value between −1 and 1 denoted “additivity”)”; in the assay with NCI-H1793, “Add. (A value between −1 and 1 denoted “additivity”)”. The “combinatorial effect with tazemetostat” value is “Add. (A value between −1 and 1 denoted “additivity”)” in the assay with NCI-H1993; “Add. (A value between −1 and 1 denoted “additivity”)” in the assay on NCI-H2030; “Anta. (volumes <−1 denoted “antagonism”)” with NCI-H2110; “Add. (A value between −1 and 1 denoted “additivity”)” in the assay on NCI-H2122; “Add. (A value between −1 and 1 denoted “additivity”)” in the assay on NCI-H23; “Add. (A value between −1 and 1 denoted “additivity”)” in the assay with NCI-H460. The “combinatorial effect with tazemetostat” value in the assay with NCI-H522 was “Anta. (volumes <−1 denoted “antagonism”)”; in the assay on NCI-H661, “Syn. (Loewe volumes greater than 1 denoted “synergy”)”; in the assay on NCI-H838, “Add. (A value between −1 and 1 denoted “additivity”)”; in the assay with Calu-3, “Add. (A value between −1 and 1 denoted “additivity”)”; with Calu-6, “Add. (A value between −1 and 1 denoted “additivity”)”; with HCC827, “Add. (A value between −1 and 1 denoted “additivity”)”.
